Values quoted from earlier work, collected in patent US20100261663A1, “Compositions Containing Harpagoside and Paeoniflorin and Methods for Treatment of Conditions Associated with Pain, Inflammation, Arthritis and Symptoms Thereof” (Restorative Remedies, priority 2009, published 2010).
Where two headings read alike, the source gives them in different places.

Columns and labels:
[1] = rats; for Cumulative biliary excretion: within 24 h
[2] = mice plasma, oral peony root extract
[3] = tested on: intestinal bacteria in rat feces
[4] = tested on: Rodent-mouse
[5] = tested on: Bacillus subtilis; settings: Bacillus subtilis rec assay
[6] = tested on: Salmonella; settings: Salmonella microsome reversion assay
[7] = for Cmax: human whole blood
[8] = tested on: mice
[9] = not given; remark: listed apart in the source
[10] = tested on: human intestinal microflora
[11] = tested on: patients suffering from osteoarthritis of the knee and hip; settings: 4 months
[12] = tested on: patients with hip and knee osteoarthritis; settings: after four months; extract 2,610 mg per day, diacerhein 100 mg per day; no significant differences
[13] = everted sac, at 60 min
[14] = 5 mg kg^−1 intravenous, within 72 h
[15] = single oral 43.8 mg harpagoside/600 mg extract (study 1)
[16] = single oral 100 mg harpagoside/400 mg extract (study 1)
[17] = single oral 108 mg harpagoside/1200 mg extract (study 3)
[18] = single oral 150 mg harpagoside/600 mg extract (study 2)
[19] = single oral 162 mg harpagoside/1800 mg extract (study 3)
[20] = single oral 200 mg harpagoside/800 mg extract (study 1)

Structure (SMILES): C[C@@]12C[C@@]3(O)O[C@@H](O1)[C@]1(COC(=O)c4ccccc4)[C@H]3C[C@@]12O[C@@H]1O[C@H](CO)[C@@H](O)[C@H](O)[C@H]1O [paeoniflorin, 5β-[(Benzoyloxy)methyl]tetrahydro-5-hydroxy-2-Methyl-2,5-methano-1H-3,4-dioxacyclobuta[cd]pentalen-1α(2H)-yl-β-D-glucopyranoside]
- Cumulative biliary excretion ([1]; 0.5 mg kg^−1 intravenous): 6.9 % of the dose
- Cumulative biliary excretion ([1]; 0.5 mg kg^−1 oral): 1.3 % of the dose
- cumulative fecal excretion [1, 14]: 0.22 % of the dose
- cumulative urinary excretion [1, 14]: 50.5 % of the dose
- cumulative fecal excretion ([1]; 5 mg kg^−1 oral, within 48 h): 0.08 % of the dose
- cumulative urinary excretion ([1]; 5 mg kg^−1 oral, within 48 h): 1.0 % of the dose
- CLtot ([1]; intravenous 0.5 mg kg^−1): 26.1 mL/min/kg
- Vdss ([1]; intravenous 0.5 mg kg^−1): 0.332 L/kg
- mean terminal half-life ([1]; intravenous 0.5 mg kg^−1): 0.183 h
- CLtot ([1]; intravenous 2.0 mg kg^−1): 31.2 mL/min/kg
- Vdss ([1]; intravenous 2.0 mg kg^−1): 0.384 L/kg
- mean terminal half-life ([1]; intravenous 2.0 mg kg^−1): 0.165 h
- CLtot ([1]; intravenous 5.0 mg kg^−1): 30.3 mL/min/kg
- Vdss ([1]; intravenous 5.0 mg kg^−1): 0.423 L/kg
- mean terminal half-life ([1]; intravenous 5.0 mg kg^−1): 0.21 h
- metabolism in the gut wall (AUC after intraperitoneal 0.5 mg kg^−1 versus intraportal or intravenous): not metabolized in the gut wall
- hepatic extraction ratio (intraportal versus intravenous, 0.5 and 5 mg kg^−1): negligible
- mean pulmonary extraction ratio (venous versus arterial AUC after intravenous 0.5 mg kg^−1): 0.06
- mean terminal half-life (t(1/2)) [2]: 1.569 h
- metabolites formed [3]: paeonimetabolin-1 (PM-1) and thio-paeonimetabolin-1 (PT-PM-1)
- LD50 ([4]; Intraperitoneal): 3530 mg/kg
- Toxic Effects ([4]; Intraperitoneal): Behavioral-somnolence (general depressed activity)
- LD50 ([4]; Intravenous): 9530 mg/kg
- Toxic Effects ([4]; Intravenous): Behavioral-sleep. Behavioral-somnolence (general depressed activity)
- mutagenicity [5]: nonmutagenic
- mutagenicity [6]: nonmutagenic

Structure (SMILES): C[C@]1(OC(=O)/C=C/c2ccccc2)C[C@@H](O)[C@]2(O)C=CO[C@@H](O[C@@H]3O[C@H](CO)[C@@H](O)[C@H](O)[C@H]3O)[C@@H]21 [harpagoside]
- harpagoside in whole blood ([7]; after 600 mg Harpagophytum extract in study 3 (54 mg harpagoside), oral): no harpagoside was detected
- Cmax [7, 15]: 15.4 ng/mL
- Cmax [7, 16]: 16.4 ng/mL
- Cmax [7, 17]: 8.2 ng/mL
- Cmax [7, 18]: 32.2 ng/mL
- Cmax [7, 19]: 27.8 ng/mL
- Cmax [7, 20]: 50.1 ng/mL
- clearance ([7]; overall, oral): about 15 L/min
- tmax [7, 15]: 2 h
- AUC(0-t) [7, 16]: 65.9 ng·h/mL
- AUC(0-∞) [7, 16]: 82 ng·h/mL
- CL [7, 16]: 20.3 L/min
- Terminal t1/2 [7, 16]: 3.7 h
- tmax [7, 16]: 2.5 h
- AUC(0-t) [7, 17]: 17.2 ng·h/mL
- tmax [7, 17]: 1.3 h
- AUC(0-t) [7, 18]: 157.5 ng·h/mL
- AUC(0-∞) [7, 18]: 226 ng·h/mL
- CL [7, 18]: 12.2 L/min
- Terminal t1/2 [7, 18]: 5.6 h
- tmax [7, 18]: 1.3 h
- AUC(0-t) [7, 19]: 160.5 ng·h/mL
- AUC(0-∞) [7, 19]: 187.9 ng·h/mL
- CL [7, 19]: 14.4 L/min
- Terminal t1/2 [7, 19]: 4.4 h
- tmax [7, 19]: 1.8 h
- AUC(0-t) [7, 20]: 225.7 ng·h/mL
- AUC(0-∞) [7, 20]: 355.8 ng·h/mL
- CL [7, 20]: 9.4 L/min
- Terminal t1/2 [7, 20]: 6.4 h
- tmax [7, 20]: 2.5 h
- LD50 [8]: greater than 13.5 grams per kg of body weight
- biological activity at acidic pH of gastric secretions [9]: significantly reduced
- transformation product [10]: transformed into the pyridine monoterpene alkaloid aucubinine B

Structure (SMILES): CC(=O)Oc1cccc2c1C(=O)c1c(OC(C)=O)cc(C(=O)O)cc1C2=O [diacerhein]
- diarrhea, patients [11]: 26.7%
- Spontaneous pain (10 cm visual analogue scale) ([11]; Harpadol 6 capsules/day, diacerhein 100 mg/day, no difference between treatments): significant improvement
- Lequesne functional index ([11]; no statistical difference between treatments): progressive and significant reduction
- osteoarthritis symptoms [12]: considerable improvements

Structure (SMILES): CCC1(c2ccccc2)C(=O)NC(=O)NC1=O [phenobarbital]
- intestinal permeability [13]: 63.1%
